Measurements as given in patent US20230399327A1, “HIGH ACTIVITY HPK1 KINASE INHIBITOR” (ADLAI NORTYE BIOPHARMA CO., LTD., priority 2020, published 2023).
pIC50: −log10 of the molar value.

Legend:
HPK1 kinase = HPK1 kinase (Homo sapiens (Human), UniProt Q92918); assay: HPK1 kinase activity inhibition (ADP-Glo Kinase Assay); format: biochemical; conditions: HPK1, MBP substrate, ATP, 25° C. 60 min
Experimental: Test Example 1: Detection of Compound's Ability to Inhibit HPK1 Kinase Activity (Method 1)
The specific operation is as follows: configure the enzymatic reaction system buffer (10 mM MOPS, pH 7.2, 5 mM β-glycerol-phosphate, 10 mM MgCl2, 0.8 mM EDTA, 2 mM EGTA, 0.1 mM DTT); the test compound (1 mM the compound stock solution in DMSO) was diluted with buffer to the highest concentration of 60 uM (containing 6% DMSO), and the compound with a concentration of 60 μM was initially diluted 5 times with a buffer containing 6% DMSO for a total of 8 points of gradient concentration; then dilute HPK1 kinase to 30 nM in buffer. Add 2 μl of HPK1 kinase diluent to each well of a Greiner 384-well microplate (Cat. No. 784075), and add 2 μl of buffer to the control well; add 1 μl of the diluted compound to the reaction well after brief centrifugation, and add 1 μl buffer solution containing 6% DMSO to the control well; after short centrifugation, place in a 25° C. constant temperature incubator (Shanghai Yiheng Scientific Instrument Co., Ltd., Cat. No.: LRH-150) and incubate for 20 minutes. Add 3 μl of reaction substrate (10 μM MBP and 20 μM ATP dissolved in distilled water) to each well, briefly centrifuge and incubate in a constant temperature incubator at 25° C. for 60 min, and use ADP-Glo Kinase Assay Kit to detect the enzymatic reaction activity, ADP-Glo Kinase Assay Kit detection is carried out according to the operating instructions of the kit. Data are described using the half maximal inhibitory concentration IC50 of the compound.

mouse spleen cells = assay: Spleen IL-2 ELISA assay (IL-2 secretion after Concanavalin A); format: cell-based, mouse (C57BL/6); conditions: highest signal vs 0.1% DMSO, ConA, 24 h
Experimental: Test Example 3: Detection of Compound's Activating Ability to Secrete Cytokine Interleukin-2 (IL-2) from Mouse Spleen Cells (Method 3)
The specific operation is as follows: the compound powder was dissolved in DMSO to 10 mM, 2 μl of the compound was added to 998 μl of RPMI 1640 medium (contained 10% FBS in this test), and the highest concentration point was obtained after vortexing. The compound solution was gradually diluted 3 times with 0.2% DMSO medium, with a total of 8 concentration points. That treated with RPMI 1640 medium solution containing 0.1% DMSO was used as a control. Add 10^5 mouse spleen cells to each well of Corning 96-well cell culture plate (product number: 3599), then add an equal volume of compound dilution, add RPMI 1640 medium containing 0.2% DMSO to the control group, and place the cells at 37° C. to incubate for 1 h in a cell culture incubator (Thermo Fisher Scientific, model: 3111). Then add Concanavalin A at a final concentration of 0.4 μg/ml and place in a cell culture incubator at 37° C. for 24 hours. Mouse IL-2 DuoSet ELISA KIT was used to detect the IL-2 content in the cell supernatant, and the Mouse […] DuoSet ELISA detection was carried out according to the operating instructions of the kit. Data are described as the highest fold ratio of the stimulated signal of the compound to the signal of 0.1% DMSO.

DC2.4 cells = assay: DC2.4 IL-6 ELISA assay (IL-6 secretion after LPS); format: cell-based, mouse; conditions: highest signal vs 0.1% DMSO, 24 h
Experimental: Test Example 4: Detection of Compound's Activating Ability to Stimulate DC2.4 Cells to Secrete Cytokine Interleukin-6 (IL-6) ([…])
The specific operation is as follows: the compound powder was dissolved in DMSO to 10 mM, 2 μl of the compound was added to 998 μl of RPMI 1640 medium (contained 10% FBS in this test), and the highest concentration point was obtained after vortexing. The compound solution was gradually diluted 3 times with 0.2% DMSO medium, with a total of 8 concentration points. That treated with RPMI 1640 medium solution containing 0.1% DMSO was used as a control. Add 10^5 DC2.4 cells to each well of Corning 96-well cell culture plate (product number: 3599), then add an equal volume of compound dilution, add RPMI 1640 medium containing 0.2% DMSO to the control group, and place the cells at 37° C. to incubate for 1 h in an incubator (Thermo Fisher Scientific, model: 3111). Subsequently, LPS was added at a final concentration of 3.2 ng/ml, and placed in a cell culture incubator at 37° C. for 24 hours. Mouse IL-6 DuoSet ELISA KIT was used to detect the IL-6 content in the cell supernatant, and the Mouse […] DuoSet ELISA detection was carried out according to the operating instructions of the kit. Data are described as the highest fold ratio of the stimulated signal of the compound to the signal of 0.1% DMSO.

PBMC = PBMC IL-2 ELISA assay (IL-2 secretion after anti-CD3/anti-CD28); format: cell-based, human; conditions: highest signal vs 0.1% DMSO, anti-CD3/CD28, 24 h
Experimental: Test Example 5: Detection of Compound's Activating Ability to Secrete Cytokine Interleukin-2 (IL-2) from PBMC (Method 5)
The specific operation is as follows: the compound powder was dissolved in DMSO to 10 mM, 2 μl of the compound was added to 998 μl of RPMI 1640 medium (contained 10% FBS in this test), and the highest concentration point was obtained after vortexing. The compound solution was gradually diluted 3 times with 0.2% DMSO medium, with a total of 8 concentration points. That treated with RPMI 1640 medium solution containing 0.1% DMSO was used as a control. 1×10˜ 5 PBMC cells were added to each well of Corning 96-well cell culture plate (item number: 3599), and then the same volume of compound diluent was added to the control group. RPMI 1640 medium containing 0.2% DMSO was added to the control group and incubated in a 37° C. cell incubator (Thermo Fisher Scientific, model: 3111) for 1 hour. Then add Anti-human CD3 Antibody and 1 μg/ml Anti-human CD28 Antibody at a final concentration of 0.1 μg/ml, and place in a 37° C. cell culture incubator to incubate for 24 hours. The Human IL-2 DuoSet ELISA KIT was used to detect the IL-2 content in the cell supernatant, and the Human IL-2 DuoSet ELISA detection was performed according to the operating instructions of the kit. Data are described as the highest fold ratio of the stimulated signal of the compound to the signal of 0.1% DMSO.

[1] = at compound concentration 1.11 μM
[2] = at compound concentration 0.37 μM
[3] = at compound concentration 1.1 μM
[4] = at compound concentration 3.3 μM
[5] = at compound concentration 10 μM

Sequence of HPK1 kinase (Q92918 whole entry): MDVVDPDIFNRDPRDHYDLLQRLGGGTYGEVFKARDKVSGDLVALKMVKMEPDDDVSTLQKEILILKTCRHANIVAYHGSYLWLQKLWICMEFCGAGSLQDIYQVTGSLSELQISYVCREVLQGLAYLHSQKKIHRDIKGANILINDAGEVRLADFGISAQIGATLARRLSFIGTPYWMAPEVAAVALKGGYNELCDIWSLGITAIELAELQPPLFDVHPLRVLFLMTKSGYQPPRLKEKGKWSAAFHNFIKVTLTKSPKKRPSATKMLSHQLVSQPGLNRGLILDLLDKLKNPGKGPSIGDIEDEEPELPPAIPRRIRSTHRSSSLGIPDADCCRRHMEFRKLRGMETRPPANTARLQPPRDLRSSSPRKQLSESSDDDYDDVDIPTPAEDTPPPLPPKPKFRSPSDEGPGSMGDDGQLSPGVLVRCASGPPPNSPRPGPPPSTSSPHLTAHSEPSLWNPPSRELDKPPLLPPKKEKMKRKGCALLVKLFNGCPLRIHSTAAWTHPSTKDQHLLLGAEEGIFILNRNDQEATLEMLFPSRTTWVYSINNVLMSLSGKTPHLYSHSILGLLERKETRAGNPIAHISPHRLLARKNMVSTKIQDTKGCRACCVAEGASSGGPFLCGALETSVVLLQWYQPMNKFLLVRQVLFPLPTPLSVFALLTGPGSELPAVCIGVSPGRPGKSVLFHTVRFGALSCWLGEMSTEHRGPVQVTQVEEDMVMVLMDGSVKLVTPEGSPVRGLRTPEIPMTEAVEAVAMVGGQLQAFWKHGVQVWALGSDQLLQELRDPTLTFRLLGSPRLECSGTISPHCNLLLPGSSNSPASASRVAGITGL

Compound | pIC50 (HPK1 kinase) | % IL-6 increased (relative to DMSO control) (DC2.4 cells; [1]) [%] | further results
COc1nc2c(cc1Nc1ncc3ccnc(N[C@@H]4CC[C@@H](O)C4)c3n1)CN(C)CC2 [Example 100] | > 10.00 | 623.00 | % IL-2 increased (relative to DMSO control) (mouse spleen cells; [4]): 190%; % IL-2 increased (relative to DMSO control) (PBMC; [2]): 239%
3-((8-(3,3-difluoropyrrolidin-1-yl)pyrido[3,4-d]pyrimidin-2-yl)amino)-1,6-dimethyl-5,6, 7,8-tetrahydro-1,6-naphthyridin-2(1H)-one [Example 85] | 7.60 | – | % IL-2 increased (relative to DMSO control) (mouse spleen cells; [5]): 260%; % IL-6 increased (relative to DMSO control) (DC2.4 cells; [5]): 305.00%; % IL-2 increased (relative to DMSO control) (PBMC; [5]): 339%
COc1nc2c(cc1Nc1ncc3ccnc(N[C@@H](CO)C(C)C)c3n1)CN(C)CC2 [Example 92] | 9.64 | – | % IL-2 increased (relative to DMSO control) (mouse spleen cells; [2]): 160%; % IL-6 increased (relative to DMSO control) (DC2.4 cells; [2]): 546.00%; % IL-2 increased (relative to DMSO control) (PBMC; [2]): 182%
CCOc1nc2c(cc1Nc1ncc3ccnc(N4CC(C)(C)C4)c3n1)CN(C)CC2 [Example 65, 8-(3,3-dimethylazetidin-1-yl)-N-(2-ethoxy-6-methyl-5,6,7,8-tetrahydro-1,6-Naphthyridin-3-yl)pyrido[3,4-d]pyrimidin-2-amine] | 7.70 | – | –
CCOc1nc2c(cc1Nc1ncc3ccnc(NCC(C)(C)C)c3n1)CN(C)CC2 [Example 52, N2-(2-ethoxy-6-methyl-5,6,7,8-tetrahydro-1,6-naphthyridin-3-yl)-N8-neopentylpyrido[3,4-d]pyrimidine-2,8-diamine] | > 10.00 | – | –
Cn1c2c(cc(Nc3ncc4ccnc(N5CCC(F)(F)CC5)c4n3)c1=O)CN(CCO)CC2 [Example 82, 3-((8-(4,4-difluoropiperidin-1-yl)pyrido[3,4-d]pyrimidin-2-yl)amino)-6-(2-hydroxyethyl)-1-methyl-5,6,7,8-tetrahydro-1,6-naphthyridin-2(1H)-one] | > 10.00 | – | –

Now from value to compound, other results behind:

pIC50 (HPK1 kinase) | Compound | % IL-6 increased (relative to DMSO control) (DC2.4 cells; [1]) [%] | further results
> 10.00 | COc1nc2c(cc1Nc1ncc3ccnc(N[C@H]4CCC[C@H]4O)c3n1)CN(C)CC2 [Example 104] | 341.00 | % IL-2 increased (relative to DMSO control) (mouse spleen cells; at compound concentration 0.0046 μM): 120%; % IL-2 increased (relative to DMSO control) (PBMC; [2]): 139%
> 10.00 | COc1nc2c(cc1Nc1ncc3ccnc(N[C@H]4CCC[C@@H]4O)c3n1)CN(C)CC2 [Example 105] | 321.00 | % IL-2 increased (relative to DMSO control) (mouse spleen cells; [3]): 170%; % IL-2 increased (relative to DMSO control) (PBMC; [3]): 176%
> 10.00 | COc1nc2c(cc1Nc1ncc3ccnc(N[C@@H]4CCC[C@@H]4O)c3n1)CN(C)CC2 [Example 102] | 553.00 | % IL-2 increased (relative to DMSO control) (mouse spleen cells; [4]): 180%
> 10.00 | COc1nc2c(cc1Nc1ncc3ccnc(N[C@@H]4CCC[C@H]4O)c3n1)CN(C)CC2 [Example 99] | – | % IL-6 increased (relative to DMSO control) (DC2.4 cells; [5]): 526.00%; % IL-2 increased (relative to DMSO control) (PBMC; [3]): 236%
> 10.00 | COc1nc2c(cc1Nc1ncc3cccc(-c4ccc5c(cnn5C)c4)c3n1)CN(C)CC2 [Example 3, N-(2-methoxy-6-methyl-5,6,7,8-tetrahydro-1,6-naphthyridin-3-yl)-8-(1-methyl-1H-indazole-5-yl)quinazolin-2-amine] | – | –
